Experimental data published in US4948873A, “Gonadoliberine analogues of high activity” (Richter Gedeon Vegyeszeti Gyar, priority 1985, dated 1990).

What was measured:
Format in all cases: in vivo
[1] = tested on: LH hormone; test: LH concentration in the serum of male mice after subcutaneous administration (radioimmunoassay); details: dose 200 ng/mouse; for LH serum level in mice after the treatments, 2 hours: 2 hours after treatment; for LH serum level in mice after the treatments, 4 hours: 4 hours after treatment; for LH serum level in mice after the treatments, 6 hours: 6 hours after treatment
Experimental: The common feature of the superactive GnRH analogues is that they liberate many times the amount of LH hormone than the natural GnRH could do and the duration of their effect is also much longer. In order to illustrate the above statements the activity for liberating LH hormone of the natural GnRH analogues and some superactive and some representatives of the GnRH analogues of formula I according to the invention are shown in FIG. 1. The experiments were carried out on male mice, the active ingredient was administered subcutaneously and the LH content of the serum of the blood of the animals was measured by radioimmunoassay.
Table I summarizes the biological data of a preferable representative of the GnRH analogues of formula I, Asu^6 -desGly^10 -GnRH-ethylamide.

[2] = tested on: rats; test: Toxicity in rats, single dose; details: single dose of 10 mg/kg
From the text: (§1) The toxicity data of Asu^6, desGly^10 -GnRH-ethylamide are as follows: […]

[3] = tested on: rats; test: Toxicity in rats, administration for 17 days; details: 10 μg/rat for 17 days
From the text: as §1

[4] = tested on: sexually mature female rats; test: Inhibition of ovulation in rats; details: 0.5 μg/rat for 17 days
Experimental: (c) Inhibition of ovulation in rats
The compound was administered for 17 days in a dose of 0.5 μg/rats to sexually mature female rats. The inhibition of ovulation was 100%. The experimental method is described in B.B.R.C. 118, 351 […] Kovacs et al.

[5] = tested on: sexually matured female rabbits; test: Induction of ovulation in angora rabbit; details: single dose of 1.5 μg/rabbit, thereafter artificially inseminated
Experimental: (d) Induction of ovulation in angora rabbit
The sexually matured female rabbits were administered with a single does of 1.5 μg/rabbit, thereafter artificially inseminated. 90% of the animals became pregnant.

Row | Substance | LH serum level in mice after the treatments, 2 hours [1] [ng/mL] | LH serum level in mice after the treatments, 4 hours [1] [ng/mL] | LH serum level in mice after the treatments, 6 hours [1] [ng/mL] | toxicity [2] | toxicity [3] | inhibition of ovulation [4] [%] | animals that became pregnant [5] [%]
1 | Glp-His-Trp-Ser-Tyr-Asu-Leu-Arg-Pro-ethylamide [Asu^6,desGly^10 -GnRH-ethylamide] | 958.4 | 702.3 | 216.2 | did not prove to be toxic | atoxic | 100 | 90
2 | GnRh: native gonadoliberine peptide hormone of hypothalamic origin [reference compound] | 85.2 | 81.4 | 87.0 |  |  |  | 
